# Results: ChEMBL document CHEMBL1201862, “PubChem BioAssay data set” (2004)
#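 Cells were grown in 96-well plates and exposed to each compound for 48 hours at five concentrations; endpoints were interpolated linearly between bracketing concentrations, or set to the highest concentration if not reached. Here, GI50 denotes the concentration required for 50% inhibition of growth.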 Calls of active or inactive are those of the source. No stated cut-off is given here; in the data, active = GI50 up to about 1.1 µM and inactive = higher.
# How the values were obtained:
# Test in all cases: NCI tumour cell line growth inhibition, 48 h
# IGROV-1 = tested on: IGROV-1
# KM12 = tested on: KM12
# SK-MEL-2 = tested on: SK-MEL-2
# COLO 205 = tested on: COLO 205
# UACC-62 = tested on: UACC-62
# SK-MEL-28 = tested on: SK-MEL-28
# SK-OV-3 = tested on: SK-OV-3
# MDA-MB-435 = tested on: MDA-MB-435
# ACHN = tested on: ACHN
# 786-0 = tested on: 786-0
# UO-31 = tested on: UO-31
# T47D = tested on: T47D
# M14 = tested on: M14
# MDA-MB-231 = tested on: MDA-MB-231
# LOX IMVI = tested on: LOX IMVI
# HCT-116 = tested on: HCT-116
# HL-60 = tested on: HL-60
# HOP-92 = tested on: HOP-92
# TK-10 = tested on: TK-10
# OVCAR-3 = tested on: OVCAR-3
# EKVX = tested on: EKVX
# SW-620 = tested on: SW-620
# SR = tested on: SR
# HT-29 = tested on: HT-29
# SNB-75 = tested on: SNB-75
# K562 = tested on: K562
# NCI-H522 = tested on: NCI-H522
# DU-145 = tested on: DU-145
# A549 = tested on: A549
# NCI/ADR-RES = tested on: NCI/ADR-RES
# RXF 393 = tested on: RXF 393
# NCI-H226 = tested on: NCI-H226
# HOP-62 = tested on: HOP-62
# PC-3 = tested on: PC-3
# SNB-19 = tested on: SNB-19
# NCI-H23 = tested on: NCI-H23
# U-251 = tested on: U-251
# HCC 2998 = tested on: HCC 2998
# MOLT-4 = tested on: MOLT-4
# OVCAR-8 = tested on: OVCAR-8
# SF-295 = tested on: SF-295
# CCRF-CEM = tested on: CCRF-CEM
# HCT-15 = tested on: HCT-15
# MCF7 = tested on: MCF7
# SF-268 = tested on: SF-268
# UACC-257 = tested on: UACC-257
# CAKI-1 = tested on: CAKI-1
# OVCAR-4 = tested on: OVCAR-4
# SF-539 = tested on: SF-539
# NCI-H460 = tested on: NCI-H460
# OVCAR-5 = tested on: OVCAR-5
# SN12C = tested on: SN12C
# A498 = tested on: A498
# Malme-3M = tested on: Malme-3M
# RPMI-8226 = tested on: RPMI-8226
# Hs-578T = tested on: Hs-578T
# SK-MEL-5 = tested on: SK-MEL-5
# MDA-N = tested on: MDA-N
smiles,measurement,setting,value
O=C(O)CCC(NC(=O)c1ccc(OCc2nc3cc(C(F)(F)F)ccc3nc2-c2ccccc2)cc1)C(=O)O (stereo unspecified),GI50,IGROV-1,> 100 µM (inactive)
same,GI50,KM12,> 100 µM (inactive)
same,GI50,SK-MEL-2,> 100 µM (inactive)
same,GI50,COLO 205,> 100 µM (inactive)
same,GI50,UACC-62,> 100 µM (inactive)
same,GI50,SK-MEL-28,> 100 µM (inactive)
same,GI50,SK-OV-3,> 100 µM (inactive)
same,GI50,MDA-MB-435,> 100 µM (inactive)
same,GI50,ACHN,> 100 µM (inactive)
same,GI50,786-0,> 100 µM (inactive)
same,GI50,UO-31,> 100 µM (inactive)
same,GI50,T47D,> 100 µM (inactive)
same,GI50,M14,> 100 µM (inactive)
same,GI50,MDA-MB-231,> 100 µM (inactive)
same,GI50,LOX IMVI,> 100 µM (inactive)
same,GI50,HCT-116,> 100 µM (inactive)
same,GI50,HL-60,> 100 µM (inactive)
same,GI50,HOP-92,> 100 µM (inactive)
same,GI50,TK-10,> 100 µM (inactive)
same,GI50,OVCAR-3,> 100 µM (inactive)
same,GI50,EKVX,> 100 µM (inactive)
same,GI50,SW-620,> 100 µM (inactive)
same,GI50,SR,9.31 µM (inactive)
same,GI50,HT-29,> 100 µM (inactive)
same,GI50,SNB-75,> 100 µM (inactive)
same,GI50,K562,> 100 µM (inactive)
same,GI50,NCI-H522,> 100 µM (inactive)
same,GI50,DU-145,> 100 µM (inactive)
same,GI50,A549,> 100 µM (inactive)
same,GI50,NCI/ADR-RES,> 100 µM (inactive)
same,GI50,RXF 393,> 100 µM (inactive)
same,GI50,NCI-H226,> 100 µM (inactive)
same,GI50,HOP-62,> 100 µM (inactive)
same,GI50,PC-3,> 100 µM (inactive)
same,GI50,SNB-19,> 100 µM (inactive)
same,GI50,NCI-H23,> 100 µM (inactive)
same,GI50,U-251,> 100 µM (inactive)
same,GI50,HCC 2998,> 100 µM (inactive)
same,GI50,MOLT-4,> 100 µM (inactive)
same,GI50,OVCAR-8,> 100 µM (inactive)
same,GI50,SF-295,> 100 µM (inactive)
same,GI50,CCRF-CEM,> 100 µM (inactive)
same,GI50,HCT-15,> 100 µM
same,GI50,MCF7,> 100 µM (inactive)
same,GI50,SF-268,> 100 µM (inactive)
same,GI50,UACC-257,> 100 µM (inactive)
same,GI50,CAKI-1,45.4 µM (inactive)
same,GI50,OVCAR-4,> 100 µM (inactive)
same,GI50,SF-539,> 100 µM (inactive)
same,GI50,NCI-H460,> 100 µM (inactive)
same,GI50,OVCAR-5,> 100 µM (inactive)
same,GI50,SN12C,> 100 µM (inactive)
same,GI50,A498,> 100 µM (inactive)
same,GI50,Malme-3M,> 100 µM (inactive)
CSC1=N/C(=C\c2cccs2)C(=O)N1CN1CCCCC1,GI50,IGROV-1,33.5 µM (inactive)
same,GI50,KM12,50.2 µM (inactive)
same,GI50,SK-MEL-2,> 100 µM (inactive)
same,GI50,COLO 205,70.6 µM (inactive)
same,GI50,UACC-62,93.3 µM (inactive)
same,GI50,SK-MEL-28,> 100 µM (inactive)
same,GI50,SK-OV-3,> 100 µM (inactive)
same,GI50,MDA-MB-435,> 100 µM (inactive)
same,GI50,ACHN,28 µM (inactive)
same,GI50,786-0,65.6 µM (inactive)
same,GI50,UO-31,23.3 µM (inactive)
same,GI50,M14,> 100 µM (inactive)
same,GI50,MDA-MB-231,> 100 µM (inactive)
same,GI50,LOX IMVI,23.1 µM (inactive)
same,GI50,HCT-116,52.5 µM (inactive)
same,GI50,RPMI-8226,22.1 µM (inactive)
same,GI50,HOP-92,28.2 µM (inactive)
same,GI50,TK-10,> 100 µM (inactive)
same,GI50,OVCAR-3,> 100 µM (inactive)
same,GI50,EKVX,24 µM (inactive)
same,GI50,SW-620,36.9 µM (inactive)
same,GI50,SR,32.2 µM (inactive)
same,GI50,HT-29,25.1 µM (inactive)
same,GI50,SNB-75,31.9 µM (inactive)
same,GI50,K562,27.1 µM (inactive)
same,GI50,DU-145,> 100 µM (inactive)
same,GI50,A549,> 100 µM (inactive)
same,GI50,NCI/ADR-RES,50.9 µM (inactive)
same,GI50,NCI-H226,57.8 µM (inactive)
same,GI50,HOP-62,> 100 µM (inactive)
same,GI50,PC-3,> 100 µM (inactive)
same,GI50,NCI-H23,> 100 µM (inactive)
same,GI50,U-251,79.6 µM (inactive)
same,GI50,Hs-578T,18.3 µM (inactive)
same,GI50,SK-MEL-5,66.8 µM (inactive)
same,GI50,MOLT-4,64.9 µM (inactive)
same,GI50,OVCAR-8,51.3 µM (inactive)
same,GI50,SF-295,> 100 µM (inactive)
same,GI50,CCRF-CEM,18.7 µM (inactive)
same,GI50,HCT-15,37.2 µM
same,GI50,MCF7,45.2 µM (inactive)
same,GI50,SF-268,37.8 µM (inactive)
same,GI50,OVCAR-5,> 100 µM (inactive)
same,GI50,MDA-N,> 100 µM (inactive)
same,GI50,SN12C,> 100 µM (inactive)
same,GI50,A498,> 100 µM (inactive)
same,GI50,Malme-3M,28.3 µM (inactive)
